# Test results from patent US7700272B2, “Polynucleotides encoding acetylcholine-gated chloride channel subunits of Caenorhabditis elegans” (priority 2004, dated 2010).
# Entries after “also recorded” stand apart in the source; their conditions may differ. Read-outs that look alike come from different tables or passages of the source. Marks after values point to notes of the source that are not given here.
# What was measured:
# ACC-1G6.4 channel = target: T1, ACC-1G6.4 channel (Caenorhabditis elegans, UniProt Q21005); assay: Two-electrode voltage-clamp of Xenopus oocytes expressing ACC-1G6.4 homomeric channel; type: cell-based, C. elegans; settings: for response (in words): 1 mM
# T1 construct: Agonist: percentage of maximal acetylcholine-elicited response; other: compound at 0.1 mM; Agonist: percentage of maximal acetylcholine-elicited response; other: compound at 0.2 mM; other: compound at 0.4 mM; other: compound at 0.8 mM; Agonist: percentage of maxim
# T1 sequence (Q21005 whole entry, looked up): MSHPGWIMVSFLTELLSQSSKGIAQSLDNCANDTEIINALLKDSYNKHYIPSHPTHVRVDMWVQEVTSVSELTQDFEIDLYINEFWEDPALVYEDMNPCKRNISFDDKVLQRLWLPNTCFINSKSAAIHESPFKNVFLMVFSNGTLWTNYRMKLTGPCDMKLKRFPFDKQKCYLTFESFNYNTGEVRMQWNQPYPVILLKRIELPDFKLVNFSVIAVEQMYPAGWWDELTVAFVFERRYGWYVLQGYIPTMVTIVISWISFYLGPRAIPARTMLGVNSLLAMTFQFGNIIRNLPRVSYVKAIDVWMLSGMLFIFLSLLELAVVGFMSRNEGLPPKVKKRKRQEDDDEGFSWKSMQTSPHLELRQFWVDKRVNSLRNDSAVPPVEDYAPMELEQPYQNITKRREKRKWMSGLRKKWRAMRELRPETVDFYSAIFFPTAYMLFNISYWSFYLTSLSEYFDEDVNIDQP
# Text: (§1) For capped cRNA synthesis, cDNAs were subcloned into the pT7N vector, which contains a T7 RNA polymerase promoter, the 5′- and 3′-UTR of Xenopus laevis beta-globin, and an encoded poly(A+) tail (Cary R B, Klymkowsky M W, Evans R M, Domingo A, Dent J A, Backhus L E (1994) Vimentin's tail interacts with actin-containing structures in vivo. J Cell Sci 107:1609-1622.). The pT7NcDNA constructs were linearized with Sal I (ACC-2D6.3) or BamHI (ACC-1G6.4) and transcribed using the MEGAscript Kit (Ambion, Austin, Tex., USA). Synthesized cRNAs were recovered by LiCl precipitation and resuspended in nuclease-free H2O at final concentration of 1 microgram/ml.
# (§2) Oocytes were harvested from mature female Xenopus leavis according to standard procedures (Goldin, A. L. (1992) Maintenance of Xenopus laevis and oocyte injection. Methods Enzymol. 207: 266-79.). To remove inner ovarian epithelium, thecal cell layer, and follicular cells, the ovarian pieces were placed in OR-2 solution: 82.5 mM NaCl, 2 mM KCl, 1 mM MgCl2, and 5 mM Hepes (pH 7.5) containing 1 mg/ml type I collagenase (Sigma, St Louis Mo., USA) either for 3 hours at 20° C. with gentle agitation or for 1 hour followed by manual defolliculization. The stage VI defolliculated oocytes were placed in ND96 solution (96 mM NaCl, 2 mM KCl, 1.8 mM CaCl2, 1 mM MgCl2, and 5 mM Hepes, pH7.5). Oocytes were injected with 40 nl of cRNA using the Nanoject system (Drummond Scientific, Broomall, Pa., USA). Injected oocytes were incubated at 20° C. in ND96 supplemented with […] gentamycin and […] pyruvate. Oocytes were allowed to express cRNA for two days before measurements were taken.
# (§3) Two-electrode voltage-clamp recordings were performed using the AxoClamp 2B amplifier (Axon Instruments, Foster City, Calif., USA). Microelectrodes were pulled from borosilicate glass capillaries (Word Precision Instruments, Inc., Sarasota, Fla., USA) on the P-97 micropipette puller Sutter Instruments, Novato, Calif., USA). […] Each oocyte was placed in RC-12 recording chamber (Warner Instrument Inc., Hamden, Conn., USA) or a Maltese cross chamber (ALA Scientific Instruments, Westbury, N.Y., USA) and clamped at −80 mV. Data were acquired at 1 kHz using Clampex software (Axon Instruments, Foster City, Calif., USA).
# (§4) Dose-response curves for agonists were generated by their applying the agonist in increasing concentrations followed by 3-9 min washes at each concentration. To determine EC50 and Hill coefficient agonist dose response curves were fit using the following equation: f(I)=(Imax[I]^n/(EC50^n+[I]^n))+Imin, where I is the normalized response to agonist at certain concentration, Imax is the maximal response elicited by a saturating concentration of agonist, EC50 is the concentration of agonist inducing half-maximal response, n is the Hill coefficient, and Imin is the normalized response at lowest agonist concentration.
# (§5) The mean and standard error of the mean of peak current responses of at least three oocytes per experiment are represented.
# (§6) All drugs were obtained from Sigma-Aldrich (St. Louis, Mo. USA) except imidicloprid (IMI) which was provided by Crompton Co. (Guelph, ON, Canada). Drugs were dissolved in ND96 except IMI, which was made as a stock solution in DMSO and diluted to working concentrations in ND96. If required, drug solutions were adjusted to pH 7.5 with either NaOH or HCl. Fresh solutions were prepared before measurements and stored at 4° C. for 1-5 days.
# ACC-2D6.3 channel = ACC-2D6.3 channel (Caenorhabditis elegans, UniProt Q18812); assay: cell-based
# ACC-2D6.3 channel, sequence (Q18812 whole entry, looked up): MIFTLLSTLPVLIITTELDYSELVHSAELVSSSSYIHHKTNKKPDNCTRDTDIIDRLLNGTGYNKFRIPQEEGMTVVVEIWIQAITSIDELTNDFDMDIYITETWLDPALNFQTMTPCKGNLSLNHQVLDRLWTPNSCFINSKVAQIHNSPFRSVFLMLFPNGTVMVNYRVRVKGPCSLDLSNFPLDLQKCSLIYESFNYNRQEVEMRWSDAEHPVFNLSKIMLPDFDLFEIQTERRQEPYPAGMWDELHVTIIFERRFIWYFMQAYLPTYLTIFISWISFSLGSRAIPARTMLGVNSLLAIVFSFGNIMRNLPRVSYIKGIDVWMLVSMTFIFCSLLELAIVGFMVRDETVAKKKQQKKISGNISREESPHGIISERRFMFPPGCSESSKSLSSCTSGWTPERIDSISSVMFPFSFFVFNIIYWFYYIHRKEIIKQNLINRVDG
# Text: as §1, §2, §3, §4, §5, §6
# rat α9nAChRs = rat α9nAChRs (Rattus norvegicus, UniProt P43144); settings: cited from earlier work
# rat α9nAChRs, sequence (P43144 26-479): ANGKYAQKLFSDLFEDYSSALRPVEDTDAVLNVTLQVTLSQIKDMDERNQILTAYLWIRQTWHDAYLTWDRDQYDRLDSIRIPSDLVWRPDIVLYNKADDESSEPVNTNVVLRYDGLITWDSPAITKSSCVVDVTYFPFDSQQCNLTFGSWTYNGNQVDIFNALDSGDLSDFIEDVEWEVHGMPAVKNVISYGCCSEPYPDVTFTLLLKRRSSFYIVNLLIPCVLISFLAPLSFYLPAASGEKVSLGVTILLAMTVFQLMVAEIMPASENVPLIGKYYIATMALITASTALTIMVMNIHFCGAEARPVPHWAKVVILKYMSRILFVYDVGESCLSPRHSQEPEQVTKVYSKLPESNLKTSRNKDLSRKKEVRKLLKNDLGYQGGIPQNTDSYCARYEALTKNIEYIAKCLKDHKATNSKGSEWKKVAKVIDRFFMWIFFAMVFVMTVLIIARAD
# [1] = target: Aplysia receptors mediating the slow desensitizing chloride-dependent response; settings: cited from earlier work
# ACC-4E9.9 = assay: Two-electrode voltage-clamp of Xenopus oocytes injected with ACC-4E9.9 cRNA; type: cell-based, C. elegans; settings: 1 mM
# Protocol: (§7) Oocytes were harvested from mature female Xenopus leavis according to standard procedures (Goldin, A. L. (1992) Maintenance of Xenopus laevis and oocyte injection. Methods Enzymol. 207: 266-79.). To remove inner ovarian epithelium, thecal cell layer, and follicular cells, the ovarian pieces were placed in OR-2 solution: 82.5 mM NaCl, 2 mM KCl, 1 mM MgCl2, and 5 mM Hepes (pH 7.5) containing 1 mg/ml type I collagenase (Sigma, St Louis Mo., USA) either for 3 hours at 20° C. with gentle agitation or for 1 hour followed by manual defolliculization. The stage VI defolliculated oocytes were placed in ND96 solution (96 mM NaCl, 2 mM KCl, 1.8 mM CaCl2, 1 mM MgCl2, and 5 mM Hepes, pH7.5). Oocytes were injected with 40 nl of cRNA using the Nanoject system (Drummond Scientific, Broomall, Pa., USA). Injected oocytes were incubated at 20° C. in ND96 supplemented with 100 mg/ml gentamycin and 550 mg/ml pyruvate. Oocytes were allowed to express cRNA for two days before measurements were taken.
# ACC-3D10.5 = assay: Two-electrode voltage-clamp of Xenopus oocytes injected with ACC-3D10.5 cRNA; type: cell-based, C. elegans; settings: 1 mM
# Protocol: as §7
# [2] = read-out: Agonist: percentage of maximal acetylcholine-elicited response
# [3] = concentration tested in brackets where printed
# [4] = concentration tested in brackets where printed, listed as d-tubocurarine
compound,measurement,setting,value
"C[N+](C)(C)CCCCCC[N+](C)(C)C [C6, hexamethonium]",agonist action (in words),ACC-1G6.4 channel,simultaneously as an agonist and an antagonist
same,antagonist action (in words),ACC-1G6.4 channel,antagonists
same,activation at 200 µM,ACC-1G6.4 channel; [2],0%
same,activation at 1000 µM,ACC-1G6.4 channel; [2],10 ± 2.6%
same,Agonist: percentage of maximal acetylcholine-elicited response,ACC-2D6.3 channel,0%
same,antagonist action (in words),ACC-2D6.3 channel,antagonists
"O=[N+]([O-])NC1=NCCN1Cc1ccc(Cl)nc1 [IMI, imidacloprid]",Antagonist: percentage decrease in a response to acetylcholine,ACC-1G6.4 channel,0%
same,activation at 10 µM,"ACC-1G6.4 channel; compound at 10 μM, read-out: Agonist: percentage of maximal acetylcholine-elicited response",0%
same,antagonist action (in words),ACC-1G6.4 channel; [3],no effect
same,antagonist action (in words),ACC-2D6.3 channel,only partially blocked
CN1[C@@H]2CC[C@H]1C[C@@H](OC(=O)C(CO)c1ccccc1)C2 (stereo partly shown) [atropine],IC50,rat α9nAChRs,1 µM
same,agonist action (in words),rat α9nAChRs,no agonistic
same,antagonist action (in words),rat α9nAChRs,Antagonist
"COc1cc2c3cc1Oc1cc(ccc1O)C[C@@H]1c4c(cc(OC)c(O)c4Oc4ccc(cc4)C[C@@H]3N(C)CC2)CC[N+]1(C)C [d-TC, d-tubocurarine]",IC50,[1]; Table 4,~40 µM
same,antagonist action (in words),[1],Antagonist
same,IC50,"rat α9nAChRs; Table 4, read-out: IC50",0.3 µM
same,antagonist action (in words),rat α9nAChRs,Antagonist
same,Antagonist: percentage decrease in a response to acetylcholine,ACC-1G6.4 channel,100^a ^ %
same,IC50,"ACC-1G6.4 channel; Table 4, order of magnitude, read-out: IC50 (range or bound)",< 20 µM
same,Agonist: percentage of maximal acetylcholine-elicited response,ACC-1G6.4 channel; compound at 20 μM,0%
same,antagonist action (in words),ACC-1G6.4 channel; [3],Antagonist
same,antagonist action (in words),ACC-1G6.4 channel; [4],irreversibly
same,Agonist: percentage of maximal acetylcholine-elicited response,ACC-2D6.3 channel; compound at 20 μM,0%
same,antagonist action (in words),ACC-2D6.3 channel; [3],Antagonist
same,antagonist action (in words),ACC-2D6.3 channel; [4],irreversibly
same,IC50,"ACC-2D6.3 channel; read-out: IC50 (range or bound), Table 4, order of magnitude",< 20 µM
"CO[C@H]1CC=C2CCN3CCC4=C(CC(=O)OC4)[C@]23C1 [dβe, dihydro-β-erythroidine]",IC50,[1]; Table 4,~20 µM
same,antagonist action (in words),[1],Antagonist
same,IC50,"rat α9nAChRs; Table 4, read-out: IC50",24.2 µM
same,antagonist action (in words),rat α9nAChRs,Antagonist
same,IC50,"ACC-1G6.4 channel; Table 4, order of magnitude, read-out: IC50 (range)",~100 µM
same,Agonist: percentage of maximal acetylcholine-elicited response,ACC-1G6.4 channel; compound at 0.4 mM,0%
same,antagonist action (in words),ACC-1G6.4 channel; [3],Antagonist
same,antagonist action (in words),"ACC-1G6.4 channel; concentration tested in brackets where printed, listed as Dihydro-β-erythroidine",antagonist
same,antagonist action (in words),"ACC-1G6.4 channel; concentration tested in brackets where printed, listed as dihydro-β-erythroidine",antagonists
same,Agonist: percentage of maximal acetylcholine-elicited response,ACC-2D6.3 channel,0%
same,IC50,ACC-2D6.3 channel,~10 µM
NCC(=O)O [glycine],response (in words),ACC-1G6.4 channel,did not respond
same,response (in words),ACC-4E9.9,did not respond
same,response (in words),ACC-3D10.5,did not respond
NCCc1c[nH]cn1 [histamine],response (in words),ACC-1G6.4 channel,did not respond
same,response (in words),ACC-4E9.9,did not respond
same,response (in words),ACC-3D10.5,did not respond
C[C@@H]1O[C@H](C[N+](C)(C)C)C[C@H]1O [muscarine],IC50,rat α9nAChRs,84 µM
same,agonist action (in words),rat α9nAChRs,no agonistic activity
same,antagonist action (in words),rat α9nAChRs,Antagonist
same,Antagonist: percentage decrease in a response to acetylcholine,ACC-1G6.4 channel,51.6 ± 5.9%
same,IC50 (range),ACC-1G6.4 channel,IC50: mM range
same,agonist action (in words),ACC-1G6.4 channel,no agonistic activity
same,antagonist action (in words),ACC-1G6.4 channel,Antagonist; also recorded: weak antagonistic activity
same,activation at 1000 µM,ACC-1G6.4 channel; [2],0%
O=C1C[C@@H]2OCC=C3CN4CC[C@]56c7ccccc7N1[C@H]5[C@H]2[C@H]3C[C@H]46 [strychnine],IC50,rat α9nAChRs,0.0179 µM
same,Antagonist: percentage decrease in a response to acetylcholine,ACC-1G6.4 channel,96 ± 1.2%
same,IC50,ACC-1G6.4 channel; IC50 (block of channel),4.61 ± 0.27 µM
same,IC50,ACC-1G6.4 channel; IC50 (range or bound),~10 µM
same,activation at 50 µM,ACC-1G6.4 channel; [2],0%
same,Agonist: percentage of maximal acetylcholine-elicited response,ACC-2D6.3 channel,0%
same,antagonist action (in words),ACC-2D6.3 channel,Antagonist
same,estimated Hill coefficient (antagonist),ACC-2D6.3 channel,1.38±0.12
same,IC50,ACC-2D6.3 channel; IC50 (block of channel),2.95 ± 0.8 µM
same,IC50,ACC-2D6.3 channel; IC50 (range or bound),~10 µM
α-bungarotoxin [α-BT],IC50,[1],~1 µM
same,antagonist action (in words),[1],Antagonist
same,antagonist action (in words),rat α9nAChRs,Antagonist
same,IC50,rat α9nAChRs; read-out: IC50,0.004 µM
same,Agonist: percentage of maximal acetylcholine-elicited response,ACC-1G6.4 channel,0%
same,Antagonist: percentage decrease in a response to acetylcholine,ACC-1G6.4 channel,0%
same,antagonist action (in words),ACC-1G6.4 channel,no effect; also recorded: not blocked; also recorded: no antagonistic
same,Agonist: percentage of maximal acetylcholine-elicited response,ACC-2D6.3 channel,0%
same,Antagonist: percentage decrease in a response to acetylcholine,ACC-2D6.3 channel,0%
